Results from US20130197080A1, “USE OF TERIFLUNOMIDE FOR TREATING MULTIPLE SCLEROSIS” (SANOFI, priority 2010, published 2013).
Several values for one entry are separate records, joined by “and”; a condition that tells them apart may be missing. Equal values may be shown once.

Tested on: patients with RMS
Experiment: TEMSO Phase III trial: safety and tolerability (adverse events, laboratory tests)
Conditions: for incidence of ALT increase (≧1×ULN) / incidence of ALT ≧3×ULN: laboratory; for proportion of patients with TEAEs potentially related to hypersensitivity/skin disorders: selected SMQs terms; for patients with increased ALT ≧3×ULN and total bilirubin ≧2×ULN: considered non drug-induced
[1] = 7 mg once daily oral, safety population (N = 368)
[2] = 14 mg once daily oral, safety population (N = 358)
[3] = teriflunomide treatment, occurred over the first 3 months, slightly more marked with 14 mg

Protocol: Following a screening phase of up to 4 weeks, eligible patients were randomized (1:1:1) to receive a once-daily oral dose of placebo or teriflunomide, 7 mg or 14 mg, for 108 weeks. Randomization was stratified by baseline EDSS score (≦3.5 and >3.5) and by trial site. Participants successfully completing the study were eligible to enter a long-term extension.
Safety was evaluated by the occurrence of adverse events reported by the patient or the investigator. Laboratory tests were performed during screening, at baseline, and then every 2 weeks for the first 24 weeks, then every 6 weeks until study completion. Physical and neurologic examinations were performed at Week 12 and then every 24 weeks. An abdominal ultrasound to assess pancreatic abnormalities was done prior to the study and then every 24 weeks.
Laboratory testing of liver function and complete blood cell count with differential were performed at baseline, then every 2 weeks for the first 24 weeks of treatment and every 6 weeks thereafter. Patients with any of the following adverse events were discontinued from the study and were subsequently followed-up: • Any confirmed increase (repeated value within 48 hours) in alanine aminotransferase (≧3×ULN) with or without increase in total bilirubin level • Any occurrence of confirmed neutrophil count less than 1.0×10^9 cells/L with or without infection • Any potentially life-threatening cytopenias detected during the follow-up of laboratory abnormalities as per the investigator's judgment
Laboratory testing of pancreatic enzymes was performed at baseline, then every 2 weeks for the first 24 weeks of treatment and every 6 weeks thereafter. An abdominal ultrasound was performed at baseline and then every 24 weeks until study completion. Any suspected abnormal ultrasound was followed up with a CT scan with contrast, or by MRI.
Serum pregnancy testing was performed at baseline, Week 10, Week 24 and then every 12 weeks thereafter. If the pregnancy test was positive, the study medication was discontinued, and the physician was required to inform the patient of the risk of pregnancy and to discuss the potential alternatives. If the patient decided to continue with their pregnancy, a washout was required. If the patient decided not to continue with their pregnancy, the study medication could be resumed 2 weeks after termination of the pregnancy.

SMILES: C/C(O)=C(\C#N)C(=O)Nc1ccc(C(F)(F)F)cc1 [teriflunomide, (Z)-2-cyano-3-hydroxy-but-2-enoic acid-(4′-trifluoromethylphenyl)-amide]
- Serious adverse event, Blood disorders: Anemia (7 mg (N = 368)): 1 (0.3%) n (%)
- Serious adverse event, Blood disorders: Neutropenia (7 mg (N = 368)): 0 n (%)
- Serious adverse event, Blood disorders: Neutrophil count decreased (7 mg (N = 368)): 0 n (%)
- Serious adverse event, Hepatic and hepatobiliary disorders: Alanine aminotransferase increased (7 mg (N = 368)): 5 (1.4%) n (%)
- Serious adverse event, Hepatic and hepatobiliary disorders: Hepatic enzyme increased (7 mg (N = 368)): 0 n (%)
- Serious adverse event, Hepatic and hepatobiliary disorders: Hepatitis toxic (7 mg (N = 368)): 0 n (%)
- Serious adverse event, Hepatic and hepatobiliary disorders: Liver injury (7 mg (N = 368)): 1 (0.3%) n (%)
- Serious adverse event, Hepatic and hepatobiliary disorders: Transaminases increased (7 mg (N = 368)): 1 (0.3%) n (%)
- Serious adverse event, Infections: Appendicitis (7 mg (N = 368)): 2 (0.5%) n (%)
- Serious adverse event, Infections: Bacteremia (7 mg (N = 368)): 0 n (%)
- Serious adverse event, Infections: Cellulitis (7 mg (N = 368)): 0 n (%)
- Serious adverse event, Infections: Cytomegalovirus hepatitis (7 mg (N = 368)): 0 n (%)
- Serious adverse event, Infections: Erysipelas (7 mg (N = 368)): 1 (0.3%) n (%)
- Serious adverse event, Infections: Gastroenteritis (7 mg (N = 368)): 0 n (%)
- Serious adverse event, Infections: Hepatitis C (7 mg (N = 368)): 0 n (%)
- Serious adverse event, Infections: Herpes zoster (7 mg (N = 368)): 0 n (%)
- Serious adverse event, Infections: Infected cyst (7 mg (N = 368)): 1 (0.3%) n (%)
- Serious adverse event, Infections: Lung infection (7 mg (N = 368)): 0 n (%)
- Serious adverse event, Infections: Pneumonia (7 mg (N = 368)): 2 (0.5%) n (%)
- Serious adverse event, Infections: Pyelonephritis (7 mg (N = 368)): 0 n (%)
- Serious adverse event, Infections: Renal abscess (7 mg (N = 368)): 0 n (%)
- Serious adverse event, Infections: Urinary tract infection (7 mg (N = 368)): 0 n (%)
- Serious adverse event, Infections: Urinary tract infection enterococcal (7 mg (N = 368)): 0 n (%)
- Serious adverse event, Malignant neoplasms: Breast cancer (7 mg (N = 368)): 0 n (%)
- Serious adverse event, Malignant neoplasms: Cervix carcinoma stage 0 (7 mg (N = 368)): 0 n (%)
- Serious adverse event, Malignant neoplasms: Thyroid cancer (7 mg (N = 368)): 0 n (%)
- Serious adverse event, Pancreatic disorders: Lipase increased (7 mg (N = 368)): 2 (0.5%) n (%)
- Serious adverse event, Pancreatic disorders: Pancreatitis (7 mg (N = 368)): 0 n (%)
- TEAE potentially related to hypersensitivity/skin reactions: Erythema (7 mg (N = 368)): 7 (1.9%) n (%)
- TEAE potentially related to hypersensitivity/skin reactions: Pruritus (7 mg (N = 368)): 13 (3.5%) n (%)
- TEAE potentially related to hypersensitivity/skin reactions: Pruritus rash (7 mg (N = 368)): 2 (0.5%) n (%)
- TEAE potentially related to hypersensitivity/skin reactions: Urticaria (7 mg (N = 368)): 4 (1.1%) n (%)
- Polyneuropathy incidence (7 mg group): 0.3%
- TEAEs (patients) (7 mg group): 89.1%
- TEAEs leading to treatment discontinuation (7 mg group): 9.8%
- diarrhea leading to treatment discontinuation (7 mg group): 0.3%
- hair thinning/decreased hair density leading to treatment discontinuation (7 mg group): 0.5%
- incidence of serious hepatic disorders (ALT >8×ULN and/or ALT >3×ULN with total bilirubin >3 mg/dL and/or any hepatic event with seriousness criterion) (7 mg group): 1.9%
- incidence of serious infections (7 mg group): 1.6%
- induced abortions among pregnancies during the trial (7 mg group): 5
- nausea leading to treatment discontinuation (7 mg group): 0.3%
- neutropenia disorders (patients) (7 mg group): 2.2%
- patients with mild or moderate peripheral neuropathy with conduction confirmation (7 mg group): four
- proportion of patients experiencing any bone marrow TEAE (7 mg group): 9.8%
- proportion of patients with TEAEs related to blood pressure increase (7 mg group): 5.4%
- serious TEAEs (patients) (7 mg group): 14.1%
- incidence of ALT increase (≧1×ULN) (7 mg group): 54.0%
- incidence of ALT ≧3×ULN (7 mg group): 6.3%
- proportion of patients with TEAEs potentially related to hypersensitivity/skin disorders (7 mg group): 10.3%
- neutrophil count decrease in case of neutropenia leading to treatment discontinuation (7 mg group, single patient): 8.7e+08 L⁻¹
- neutrophil count after recovery (7 mg group, single patient, three days after treatment discontinuation): 1.34e+09 L⁻¹
- patients with increased ALT ≧3×ULN and total bilirubin ≧2×ULN (7 mg group): one
- Any event leading to death [1]: 0 n (%)
- Any treatment emergent adverse event leading to discontinuation of study drug [1]: 36 (9.8) n (%)
- Any treatment emergent serious adverse event [1]: 52 (14.1) n (%)
- At least one treatment emergent adverse event [1]: 328 (89.1) n (%)
- TEAE Alanine aminotransferase increased (reported as adverse event by the investigator) [1]: 44 (12.0) no. of patients (%)
- TEAE Back pain [1]: 39 (10.6) no. of patients (%)
- TEAE Diarrhea [1]: 54 (14.7) no. of patients (%)
- TEAE Fatigue [1]: 47 (12.8) no. of patients (%)
- TEAE Hair thinning/decreased hair density (MedDRA: alopecia) [1]: 38 (10.3) no. of patients (%)
- TEAE Headache [1]: 81 (22.0) no. of patients (%)
- TEAE Nasopharyngitis [1]: 94 (25.5) no. of patients (%)
- TEAE Nausea [1]: 33 (9.0) no. of patients (%)
- TEAE Pain in extremity [1]: 26 (7.1) no. of patients (%)
- TEAE Urinary tract infection [1]: 27 (7.3) no. of patients (%)
- Serious adverse event, Blood disorders: Anemia (14 mg (N = 358)): 0 n (%)
- Serious adverse event, Blood disorders: Neutropenia (14 mg (N = 358)): 1 (0.3%) n (%)
- Serious adverse event, Blood disorders: Neutrophil count decreased (14 mg (N = 358)): 1 (0.3%) n (%)
- Serious adverse event, Hepatic and hepatobiliary disorders: Alanine aminotransferase increased (14 mg (N = 358)): 5 (1.4%) n (%)
- Serious adverse event, Hepatic and hepatobiliary disorders: Hepatic enzyme increased (14 mg (N = 358)): 1 (0.3%) n (%)
- Serious adverse event, Hepatic and hepatobiliary disorders: Hepatitis toxic (14 mg (N = 358)): 1 (0.3%) n (%)
- Serious adverse event, Hepatic and hepatobiliary disorders: Liver injury (14 mg (N = 358)): 0 n (%)
- Serious adverse event, Hepatic and hepatobiliary disorders: Transaminases increased (14 mg (N = 358)): 1 (0.3%) n (%)
- Serious adverse event, Infections: Appendicitis (14 mg (N = 358)): 0 n (%)
- Serious adverse event, Infections: Bacteremia (14 mg (N = 358)): 1 (0.3%) n (%)
- Serious adverse event, Infections: Cellulitis (14 mg (N = 358)): 0 n (%)
- Serious adverse event, Infections: Cytomegalovirus hepatitis (14 mg (N = 358)): 1 (0.3%) n (%)
- Serious adverse event, Infections: Erysipelas (14 mg (N = 358)): 0 n (%)
- Serious adverse event, Infections: Gastroenteritis (14 mg (N = 358)): 1 (0.3%) n (%)
- Serious adverse event, Infections: Hepatitis C (14 mg (N = 358)): 0 n (%)
- Serious adverse event, Infections: Herpes zoster (14 mg (N = 358)): 0 n (%)
- Serious adverse event, Infections: Infected cyst (14 mg (N = 358)): 0 n (%)
- Serious adverse event, Infections: Lung infection (14 mg (N = 358)): 0 n (%)
- Serious adverse event, Infections: Pneumonia (14 mg (N = 358)): 0 n (%)
- Serious adverse event, Infections: Pyelonephritis (14 mg (N = 358)): 3 (0.8%) n (%)
- Serious adverse event, Infections: Renal abscess (14 mg (N = 358)): 1 (0.3%) n (%)
- Serious adverse event, Infections: Urinary tract infection (14 mg (N = 358)): 1 (0.3%) n (%)
- Serious adverse event, Infections: Urinary tract infection enterococcal (14 mg (N = 358)): 1 (0.3%) n (%)
- Serious adverse event, Malignant neoplasms: Breast cancer (14 mg (N = 358)): 0 n (%)
- Serious adverse event, Malignant neoplasms: Cervix carcinoma stage 0 (14 mg (N = 358)): 1 (0.3%) n (%)
- Serious adverse event, Malignant neoplasms: Thyroid cancer (14 mg (N = 358)): 0 n (%)
- Serious adverse event, Pancreatic disorders: Lipase increased (14 mg (N = 358)): 0 n (%)
- Serious adverse event, Pancreatic disorders: Pancreatitis (14 mg (N = 358)): 0 n (%)
- TEAE potentially related to hypersensitivity/skin reactions: Erythema (14 mg (N = 358)): 4 (1.1%) n (%)
- TEAE potentially related to hypersensitivity/skin reactions: Pruritus (14 mg (N = 358)): 10 (2.8%) n (%)
- TEAE potentially related to hypersensitivity/skin reactions: Pruritus rash (14 mg (N = 358)): 1 (0.3%) n (%)
- TEAE potentially related to hypersensitivity/skin reactions: Urticaria (14 mg (N = 358)): 3 (0.8%) n (%)
- Polyneuropathy incidence (14 mg group): 0.8%
- TEAEs (patients) (14 mg group): 90.8%
- TEAEs leading to treatment discontinuation (14 mg group): 10.9%
- diarrhea leading to treatment discontinuation (14 mg group): 0.3%
- hair thinning/decreased hair density leading to treatment discontinuation (14 mg group): 1.4%
- incidence of serious hepatic disorders (ALT >8×ULN and/or ALT >3×ULN with total bilirubin >3 mg/dL and/or any hepatic event with seriousness criterion) (14 mg group): 2.5%
- incidence of serious infections (14 mg group): 2.5%
- induced abortions among pregnancies during the trial (14 mg group): 1
- nausea leading to treatment discontinuation (14 mg group): 0.0%
- neutropenia disorders (patients) (14 mg group): 4.5%
- patients who discontinued treatment due to pruritus (14 mg group): One
- patients with mild or moderate peripheral neuropathy with conduction confirmation (14 mg group): six
- proportion of patients experiencing any bone marrow TEAE (14 mg group): 7.5%
- proportion of patients with TEAEs related to blood pressure increase (14 mg group): 5.0%
- serious TEAEs (patients) (14 mg group): 15.9%
- spontaneous abortions among pregnancies during the trial (14 mg group): 3
- incidence of ALT increase (≧1×ULN) (14 mg group): 57.3%
- incidence of ALT ≧3×ULN (14 mg group): 6.7%
- proportion of patients with TEAEs potentially related to hypersensitivity/skin disorders (14 mg group): 11.2%
- neutrophil count in cases of moderate neutrophil count decrease (serious AEs) (14 mg group, two patients): 9.5e+08 L⁻¹ and 9e+08 L⁻¹
- neutrophil count after recovery (14 mg group, two patients, a few days later, treatment continuing): 2.09e+09 L⁻¹ and 3.82e+09 L⁻¹
- patients with malignant neoplasms (14 mg group, cervix carcinoma in situ (stage 0) after 1.5 years treatment): one
- patients with increased ALT ≧3×ULN and total bilirubin ≧2×ULN (14 mg group): one
- Any event leading to death [2]: 0 n (%)
- Any treatment emergent adverse event leading to discontinuation of study drug [2]: 39 (10.9) n (%)
- Any treatment emergent serious adverse event [2]: 57 (15.9) n (%)
- At least one treatment emergent adverse event [2]: 325 (90.8) n (%)
- TEAE Alanine aminotransferase increased (reported as adverse event by the investigator) [2]: 51 (14.2) no. of patients (%)
- TEAE Back pain [2]: 41 (11.5) no. of patients (%)
- TEAE Diarrhea [2]: 64 (17.9) no. of patients (%)
- TEAE Fatigue [2]: 52 (14.5) no. of patients (%)
- TEAE Hair thinning/decreased hair density (MedDRA: alopecia) [2]: 47 (13.1) no. of patients (%)
- TEAE Headache [2]: 67 (18.7) no. of patients (%)
- TEAE Nasopharyngitis [2]: 93 (26.0) no. of patients (%)
- TEAE Nausea [2]: 49 (13.7) no. of patients (%)
- TEAE Pain in extremity [2]: 33 (9.2) no. of patients (%)
- TEAE Urinary tract infection [2]: 37 (10.3) no. of patients (%)
- serious opportunistic infections (across groups): no serious opportunistic infections observed
- increases in amylase and lipase (mean change from baseline) (across the three treatment groups): No increases
- deaths (all groups): No deaths occurred
- treatment discontinuation due to increased blood pressure (all groups): No patient discontinued treatment
- neutrophil count in three cases of moderate neutropenia (on teriflunomide): 9e+08 L⁻¹
- adverse event potentially attributed to interstitial lung disease (SMQ terms) (teriflunomide groups): No adverse event
- average increase in diastolic blood pressure (teriflunomide groups): < 2 mmHg
- average increase in systolic blood pressure (teriflunomide groups): < 4 mmHg
- mean reduction from baseline in lymphocyte counts [3]: 3e+08 L⁻¹
- mean reduction from baseline in neutrophil counts [3]: 1e+09 L⁻¹
